Measurements taken from paper PMC6366974, “The curcumin analog EF24 is a novel senolytic agent” (Aging (Albany NY), 2019).

Legend:
Assay in all cases: Western blotting of protein expression in WI-38 cells
Format in all cases: cell-based, human
[1] = system: Mcl-1; conditions: WI-38 IR-SCs, 0.5, 1 and 2 µM, 72 h
Experimental: (§1) After treatment with vehicle or EF24 at 0.5, 1 and 2 µM for 72 h, WI-38 NCs or IR-SCs were harvested in 1.5mL microcentrifuge tubes, and lysed in RIPA buffer with EDTA and EGTA (Cat. No. BP-115DG, Boston BioProducts, Ashland, MA, USA) supplemented with 1% protease inhibitor cocktail (Cat. No. P8340, Sigma-Aldrich, St. Louis, MO, USA) and 1% phosphatase inhibitor cocktail (Cat. No. P0044, Sigma-Aldrich, St. Louis, MO, USA). An equal amount of protein (30 µg/lane) from each cell extract was resolved on a precast gel (Mini-PROTEAN TGX™, Cat. No. 456-1094, Bio-Rad, Hercules, CA, USA). Proteins were blotted to a precut 0.2 µm PVDF membrane (Invitrolon™, Cat. No. LC2002, Life Technologies, Carlsbad, CA, USA) by electrophoresis. The membranes were blocked with 1X TBS-Tween (TBST, Cat. No. J77500, Affymetrix, Santan Clara, CA, USA) containing 5% non-fat dry milk (Cat. No. sc-2324, Santa Cruz Biotechnology, Dallas, TX, USA), and subsequently probed with primary antibodies at a predetermined optimal concentration overnight at 4°C. The primary antibodies including Bcl-xl (Cat. No. 2762), Mcl-1 (Cat. No. 5453), and Bcl-2 (Cat. No. 2872) and β-actin (Cat. No. 4970) were purchased from Cell Signaling Technology (Danvers, MA, USA). After washing with TBST for 3 times (10 min each time), the membranes were incubated with the secondary horse radish peroxidase (HRP)-linked antibody (Cat. No. 7074, Cell Signaling Technology, Danvers, MA, USA) for 2 h at room temperature. Following sufficient washing with TBST, the membranes were incubated with chemiluminescent HRP substrate (Immobilon™ Western, Cat. No. P36599, MilliporeSigma, Billerica, MA, USA) that consists of equal volume of luminol reagent and peroxide solution. The blotting membranes were recorded using autoradiography (SRX-101, Konica, Shinjuku, Tokyo, Japan). For the proteasome inhibition experiment, IR-SCs were treated with vehicle (0.1% DMSO) or 1 µM MG132 (Cat. No. S2619, Selleckchem, Houston, TX, USA) for 1 h prior to the incubation with EF24 at 0, 0.5, 1 and 2 µM for 72h.

[2] = system: Bcl-2; conditions: WI-38 IR-SCs, 0.5, 1 and 2 µM, 72 h; did not reach statistical significance
Experimental: as §1

[3] = system: Bcl-xl; conditions: 72 h
Experimental: as §1

Compound: O=C1/C(=C/c2ccccc2F)CNC/C1=C\c1ccccc1F [EF24]
- expression of Mcl-1 in IR-SCs [1]: significantly reduce
- levels of Bcl-2 in IR-SCs [2]: slightly reduced
- expression of Bcl-xl in IR-SCs ([3]; WI-38 IR-SCs, 0.5, 1 and 2 µM): significantly reduce
- expression of Bcl-xl in NCs ([3]; WI-38 NCs, 0.5, 1 and 2 µM): not in NCs
